Inconclusive results and toxic doses are left out. Rule for the calls: active = survival T/C of 150% or more; inactive = T/C below 125% in these data.
Test system: CD2F1 mice, L1210 leukemia ip, survival T/C
Assay: NCI In Vivo Anticancer Drug Screen. Data for tumor model L1210 Leukemia (intraperitoneal) in CD2F1 (CDF1) mice
Settings: higher = longer survival
Procedure, shortened: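 Transplantable tumor in mice; compound-treated vs vehicle-treated groups. Read-out = treated/control ratio of the measured endpoint.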

[1] = endpoint: mean survival time, dose: 100.0 mg/kg/injection, schedule: Q01DX009 (ip), vehicle: saline with Tween-80
[2] = endpoint: mean survival time, dose: 100.0 mg/kg/injection, schedule: Q01DX001 (ip), vehicle: saline with Tween-80
[3] = endpoint: mean survival time, dose: 200.0 mg/kg/injection, schedule: Q01DX001 (ip), vehicle: saline with Tween-80
[4] = endpoint: mean survival time, dose: 100.0 mg/kg/injection, schedule: Q01DX009 (ip), vehicle: saline sonified
[5] = endpoint: mean survival time, dose: 200.0 mg/kg/injection, schedule: Q01DX009 (ip), vehicle: saline sonified
[6] = endpoint: mean survival time, dose: 100.0 mg/kg/injection, schedule: Q04DX002 (ip), vehicle: saline with Tween-80
[7] = endpoint: mean survival time, dose: 200.0 mg/kg/injection, schedule: Q04DX002 (ip), vehicle: saline with Tween-80
[8] = endpoint: mean survival time, dose: 400.0 mg/kg/injection, schedule: Q04DX002 (ip), vehicle: saline with Tween-80
[9] = endpoint: mean survival time, dose: 100.0 mg/kg/injection, schedule: Q04DX003 (ip), vehicle: saline with Tween-80
[10] = endpoint: mean survival time, dose: 200.0 mg/kg/injection, schedule: Q04DX003 (ip), vehicle: saline with Tween-80
[11] = endpoint: mean survival time, dose: 100.0 mg/kg/injection, schedule: Q01DX001 (ip), vehicle: saline
[12] = endpoint: mean survival time, dose: 200.0 mg/kg/injection, schedule: Q01DX001 (ip), vehicle: saline
[13] = endpoint: mean survival time, dose: 400.0 mg/kg/injection, schedule: Q01DX001 (ip), vehicle: saline
[14] = endpoint: mean survival time, dose: 400.0 mg/kg/injection, schedule: Q04DX003 (ip), vehicle: saline with Tween-80
[15] = endpoint: median survival time, dose: 50.0 mg/kg/injection, schedule: Q04DX002 (ip), vehicle: saline with Tween-80
[16] = endpoint: median survival time, dose: 100.0 mg/kg/injection, schedule: Q04DX002 (ip), vehicle: saline with Tween-80
[17] = endpoint: median survival time, dose: 200.0 mg/kg/injection, schedule: Q04DX002 (ip), vehicle: saline with Tween-80

Measured: T/C

Nc1nc(N)c(-c2ccc(Cl)c(Cl)c2)c(/C=C/C=C/c2cccnc2)n1
inactive: endpoint: mean survival time, dose: 50.0 mg/kg/injection, schedule: Q01DX009 (ip), vehicle: saline with Tween-80 110 % of control | [1] 95 % of control

CC1=NN(c2ccc([N+](=O)[O-])cc2)C(=O)C1[N+](=O)[O-] (centres undefined) (tested in a mixture with another compound)
inactive: endpoint: mean survival time, dose: 75.0 mg/kg/injection, schedule: Q01DX001 (ip), vehicle: other 92 % of control | [2] 91 % of control | endpoint: mean survival time, dose: 150.0 mg/kg/injection, schedule: Q01DX001 (ip), vehicle: other 104 % of control | [3] 97 % of control

CC(C)c1cc(O)ccc1N(C)C (tested in a mixture with another compound)
inactive: endpoint: mean survival time, dose: 32.0 micrograms/kg/injection, schedule: Q04DX003 (ip), vehicle: saline 102 % of control | endpoint: mean survival time, dose: 63.0 micrograms/kg/injection, schedule: Q01DX001 (ip), vehicle: saline 98 % of control | endpoint: mean survival time, dose: 63.0 micrograms/kg/injection, schedule: Q04DX003 (ip), vehicle: saline 101 % of control | endpoint: mean survival time, dose: 125.0 micrograms/kg/injection, schedule: Q01DX001 (ip), vehicle: saline 98 % of control | endpoint: mean survival time, dose: 125.0 micrograms/kg/injection, schedule: Q04DX003 (ip), vehicle: saline 90 % of control

Cc1cc(NC(=O)Nc2ccc(Cl)cc2)no1
inactive: endpoint: mean survival time, dose: 50.0 mg/kg/injection, schedule: Q01DX009 (ip), vehicle: saline sonified 96 % of control | [4] 96 % of control | [5] 96 % of control

O=C(NCCNC(=O)Nc1ccccc1Cl)Nc1ccccc1Cl
inactive: [6] 104 % of control | [7] 97 % of control | [8] 101 % of control

O=[N+]([O-])c1cc(Cl)c(Cl)cc1[N+](=O)[O-]
inactive: [2] 90 % of control | [3] 90 % of control

CN(C)C(=O)Nc1cccc(OS(=O)(=O)N(C)C)c1
inactive: [9] 99 % of control | [10] 96 % of control

CCCCCCCCCCCCCCCCCC[N+]1(CC)CCCCC1
inactive: endpoint: mean survival time, dose: 0.09 mg/kg/injection, schedule: Q01DX009 (ip), vehicle: saline 98 % of control | endpoint: mean survival time, dose: 0.19 mg/kg/injection, schedule: Q01DX009 (ip), vehicle: saline 98 % of control | endpoint: mean survival time, dose: 0.39 mg/kg/injection, schedule: Q01DX009 (ip), vehicle: saline 101 % of control | endpoint: mean survival time, dose: 0.78 mg/kg/injection, schedule: Q01DX009 (ip), vehicle: saline 98 % of control

O=C1NC(c2ccccc2)C([N+](=O)[O-])=C1O (centres undefined)
inactive: [4] 101 % of control | [1] 101 % of control | [5] 98 % of control | endpoint: mean survival time, dose: 200.0 mg/kg/injection, schedule: Q01DX009 (ip), vehicle: saline with Tween-80 95 % of control | endpoint: mean survival time, dose: 400.0 mg/kg/injection, schedule: Q01DX009 (ip), vehicle: saline sonified 102 % of control | endpoint: mean survival time, dose: 400.0 mg/kg/injection, schedule: Q01DX009 (ip), vehicle: saline with Tween-80 97 % of control

Nc1ncnc2c1ncn2[C@@H](/C=N\O)O[C@@H](/C=N\O)CO
inactive: endpoint: median survival time, dose: 12.5 mg/kg/injection, schedule: Q01DX005 (ip), vehicle: water 100 % of control | endpoint: median survival time, dose: 25.0 mg/kg/injection, schedule: Q01DX005 (ip), vehicle: water 96 % of control | endpoint: median survival time, dose: 50.0 mg/kg/injection, schedule: Q01DX005 (ip), vehicle: water 103 % of control | endpoint: median survival time, dose: 100.0 mg/kg/injection, schedule: Q01DX005 (ip), vehicle: water 97 % of control | endpoint: median survival time, dose: 200.0 mg/kg/injection, schedule: Q01DX005 (ip), vehicle: water 90 % of control

CC(=O)OCC1OC(OC2C(COC(C)=O)OC(OC(C)=O)C(OC(C)=O)C2OC(C)=O)C(OC(C)=O)C(OC(C)=O)C1OC(C)=O (centres undefined)
inactive: [11] 100 % of control | [12] 91 % of control | [13] 97 % of control

CNC(=O)c1ccccc1C(c1ccccc1)C1(O)CCCCC1 (centres undefined)
inactive: [9] 101 % of control | [10] 88 % of control | [14] 93 % of control

C=CCN(CC=C)C1=CC(=O)C(=O)c2ccccc21
inactive: endpoint: mean survival time, dose: 75.0 mg/kg/injection, schedule: Q01DX001 (ip), vehicle: saline 91 % of control | endpoint: mean survival time, dose: 150.0 mg/kg/injection, schedule: Q01DX001 (ip), vehicle: saline 100 % of control | endpoint: mean survival time, dose: 300.0 mg/kg/injection, schedule: Q01DX001 (ip), vehicle: saline 89 % of control

Nc1cc(=S)c2ncn(C3OC(CO)C(O)C3O)c2[nH]1 (centres undefined)
inactive: endpoint: mean survival time, dose: 6.25 mg/kg/injection, schedule: Q01DX005 (ip), vehicle: water 89 % of control | endpoint: mean survival time, dose: 12.5 mg/kg/injection, schedule: Q01DX005 (ip), vehicle: water 101 % of control | endpoint: mean survival time, dose: 25.0 mg/kg/injection, schedule: Q01DX005 (ip), vehicle: water 89 % of control | endpoint: mean survival time, dose: 50.0 mg/kg/injection, schedule: Q01DX005 (ip), vehicle: water 96 % of control | [2] 100 % of control | endpoint: mean survival time, dose: 100.0 mg/kg/injection, schedule: Q01DX005 (ip), vehicle: water 93 % of control | [3] 91 % of control | endpoint: mean survival time, dose: 400.0 mg/kg/injection, schedule: Q01DX001 (ip), vehicle: saline with Tween-80 100 % of control

COc1c(C)c(Br)c(OC)c2ccccc12
inactive: [9] 94 % of control | [10] 94 % of control | [14] 100 % of control

Cc1cc(S(=O)(=O)F)cc(Cl)c1SC(=O)N(C)C
inactive: [6] 91 % of control | [7] 95 % of control | [8] 91 % of control

O=C(CNC(=O)OCc1ccccc1)NCC(=O)NC(CO)C(=O)O (centres undefined)
inactive: [9] 95 % of control | [10] 104 % of control | [14] 96 % of control

CC(=O)CCCN(CCO)CCO
inactive: [11] 103 % of control | [12] 93 % of control | [13] 101 % of control

CNC(=S)SC
inactive: endpoint: mean survival time, dose: 50.0 mg/kg/injection, schedule: Q01DX001 (ip), vehicle: saline 98 % of control | [11] 102 % of control | [12] 104 % of control

CCN(CC)CCN1CC2CC=CCC2C1 (centres undefined)
inactive: [1] 96 % of control

O=[N+]([O-])c1cccc2ccccc12
inactive: endpoint: mean survival time, dose: 100.0 mg/kg/injection, schedule: Q04DX003 (ip), vehicle: saline 101 % of control | endpoint: mean survival time, dose: 200.0 mg/kg/injection, schedule: Q04DX003 (ip), vehicle: saline 103 % of control | endpoint: mean survival time, dose: 400.0 mg/kg/injection, schedule: Q04DX003 (ip), vehicle: saline 86 % of control

NC(=O)OCCc1ccccc1
inactive: endpoint: mean survival time, dose: 100.0 mg/kg/injection, schedule: Q04DX003 (ip), vehicle: Klucel (hydroxypropylcellulose) (HPC) 94 % of control | endpoint: mean survival time, dose: 200.0 mg/kg/injection, schedule: Q04DX003 (ip), vehicle: Klucel (hydroxypropylcellulose) (HPC) 102 % of control

COc1cc(CCl)ccc1OCc1ccccc1
inactive: endpoint: mean survival time, dose: 100.0 mg/kg/injection, schedule: Q04DX003 (ip), vehicle: other 98 % of control | endpoint: mean survival time, dose: 200.0 mg/kg/injection, schedule: Q04DX003 (ip), vehicle: other 98 % of control | endpoint: mean survival time, dose: 400.0 mg/kg/injection, schedule: Q04DX003 (ip), vehicle: other 109 % of control

O=c1n(-c2ccccc2)c(=O)n2n1C1C=CC2C2CC2/C=C\1 (centres undefined)
inactive: [15] 112 % of control | [16] 112 % of control | [17] 87 % of control

O=C(CC(=O)C(F)(F)F)c1cccs1.O=C(CC(=O)C(F)(F)F)c1cccs1.O=C(CC(=O)C(F)(F)F)c1cccs1.[Sm]
inactive: [15] 100 % of control | [16] 88 % of control | [17] 100 % of control

CCOC(=O)Nc1cc(NCCc2ccccc2)c([N+](=O)[O-])c(N)n1
inactive: endpoint: mean survival time, dose: 100.0 mg/kg/injection, schedule: Q01DX001 (ip), vehicle: Klucel (hydroxypropylcellulose) (HPC) 91 % of control | endpoint: mean survival time, dose: 200.0 mg/kg/injection, schedule: Q01DX001 (ip), vehicle: Klucel (hydroxypropylcellulose) (HPC) 94 % of control | endpoint: mean survival time, dose: 400.0 mg/kg/injection, schedule: Q01DX001 (ip), vehicle: Klucel (hydroxypropylcellulose) (HPC) 86 % of control

CC(=O)NCc1cnccn1
inactive: endpoint: mean survival time, dose: 100.0 mg/kg/injection, schedule: Q04DX003 (ip), vehicle: saline sonified 103 % of control | endpoint: mean survival time, dose: 200.0 mg/kg/injection, schedule: Q04DX003 (ip), vehicle: saline sonified 102 % of control | endpoint: mean survival time, dose: 400.0 mg/kg/injection, schedule: Q04DX003 (ip), vehicle: saline sonified 102 % of control

Source: PubChem BioAssay AID256 (DTP/NCI, 2004)
